One experiment concerns the target hNav 1.7 (Homo sapiens (Human), UniProt Q15858). Put plainly: Electrophysiological evaluation, automated patch clamp IonWorks Quattro (Population Patch Clamp mode). Format: cell-based. As to conditions: HEK293A cells stably expressing hNav 1.7/β1/β2; response to second depolarization pulse, pre-pulse potential set to V1/2; read-out: hNav1.7 IC50. In general terms: In patch-clamp work, channel activity is measured electrically.

The subject of experiment [1] is mice and rats affected by thermal hyperalgesia. Kind of experiment: Thermal hyperalgesia assay.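 Further: measurement times set by the study director and not disclosed.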 Type of experiment: in vivo. The following applies: oral administration, constant dose, against the vehicle treatment group; latency to escape behaviors after thermal stimulation of hind paw.

SMILES strings stand for the structures.

hNav 1.7, sequence (Q15858 whole entry): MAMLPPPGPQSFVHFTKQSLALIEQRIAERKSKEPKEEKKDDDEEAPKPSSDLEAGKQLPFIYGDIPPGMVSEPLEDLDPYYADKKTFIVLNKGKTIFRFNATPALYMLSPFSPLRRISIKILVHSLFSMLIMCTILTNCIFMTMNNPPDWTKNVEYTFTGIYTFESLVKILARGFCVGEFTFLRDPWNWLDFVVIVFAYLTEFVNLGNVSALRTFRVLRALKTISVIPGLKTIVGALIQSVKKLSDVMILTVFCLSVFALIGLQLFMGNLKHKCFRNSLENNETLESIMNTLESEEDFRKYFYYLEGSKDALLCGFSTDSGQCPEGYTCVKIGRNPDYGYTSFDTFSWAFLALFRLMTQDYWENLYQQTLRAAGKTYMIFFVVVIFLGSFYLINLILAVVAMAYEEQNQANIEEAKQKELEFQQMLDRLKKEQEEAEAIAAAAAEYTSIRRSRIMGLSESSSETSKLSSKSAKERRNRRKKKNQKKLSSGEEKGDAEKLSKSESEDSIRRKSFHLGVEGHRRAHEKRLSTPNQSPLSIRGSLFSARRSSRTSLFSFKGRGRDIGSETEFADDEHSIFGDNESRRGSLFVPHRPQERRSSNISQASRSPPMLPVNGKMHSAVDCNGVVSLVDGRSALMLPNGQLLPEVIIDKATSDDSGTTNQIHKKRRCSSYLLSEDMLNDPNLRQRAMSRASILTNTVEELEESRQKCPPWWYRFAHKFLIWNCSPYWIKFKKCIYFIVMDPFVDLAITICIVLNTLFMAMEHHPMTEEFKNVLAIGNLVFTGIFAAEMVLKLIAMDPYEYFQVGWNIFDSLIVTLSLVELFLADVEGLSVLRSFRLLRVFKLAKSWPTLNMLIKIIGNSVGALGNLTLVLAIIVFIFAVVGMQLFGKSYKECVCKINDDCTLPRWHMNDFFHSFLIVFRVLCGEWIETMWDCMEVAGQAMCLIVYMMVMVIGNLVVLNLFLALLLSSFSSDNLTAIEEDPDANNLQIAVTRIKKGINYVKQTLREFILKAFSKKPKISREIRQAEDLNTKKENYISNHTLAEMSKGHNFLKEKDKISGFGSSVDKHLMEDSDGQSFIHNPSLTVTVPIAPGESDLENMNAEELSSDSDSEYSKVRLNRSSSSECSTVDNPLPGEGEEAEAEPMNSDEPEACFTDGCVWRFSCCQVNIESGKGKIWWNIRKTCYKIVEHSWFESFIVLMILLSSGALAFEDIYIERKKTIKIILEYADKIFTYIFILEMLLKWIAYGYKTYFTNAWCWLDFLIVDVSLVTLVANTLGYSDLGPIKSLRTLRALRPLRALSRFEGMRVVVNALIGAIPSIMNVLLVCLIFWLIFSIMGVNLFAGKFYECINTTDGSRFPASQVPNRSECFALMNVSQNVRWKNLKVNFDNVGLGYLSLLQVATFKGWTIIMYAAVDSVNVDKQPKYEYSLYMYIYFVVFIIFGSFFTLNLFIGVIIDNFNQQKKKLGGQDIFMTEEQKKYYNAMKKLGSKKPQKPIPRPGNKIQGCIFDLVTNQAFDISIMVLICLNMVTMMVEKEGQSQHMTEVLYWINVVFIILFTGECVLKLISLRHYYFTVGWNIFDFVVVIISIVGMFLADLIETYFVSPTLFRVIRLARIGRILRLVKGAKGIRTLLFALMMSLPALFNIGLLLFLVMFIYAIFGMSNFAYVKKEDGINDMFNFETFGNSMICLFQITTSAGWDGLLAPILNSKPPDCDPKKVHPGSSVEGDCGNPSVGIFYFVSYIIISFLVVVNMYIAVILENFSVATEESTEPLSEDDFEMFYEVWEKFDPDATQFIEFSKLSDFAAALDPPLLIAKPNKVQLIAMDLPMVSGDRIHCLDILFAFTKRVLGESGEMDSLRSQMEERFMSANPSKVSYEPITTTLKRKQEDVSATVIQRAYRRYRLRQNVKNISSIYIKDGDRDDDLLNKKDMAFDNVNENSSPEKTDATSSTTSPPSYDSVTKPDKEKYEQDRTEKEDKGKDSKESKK
hNav 1.7, sequence (Q07699 19-218 partner): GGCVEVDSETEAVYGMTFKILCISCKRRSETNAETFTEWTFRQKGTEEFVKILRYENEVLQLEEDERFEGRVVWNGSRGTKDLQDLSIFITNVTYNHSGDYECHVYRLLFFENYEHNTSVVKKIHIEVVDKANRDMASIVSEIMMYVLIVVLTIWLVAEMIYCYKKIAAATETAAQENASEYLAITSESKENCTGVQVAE
hNav 1.7, sequence (O60939 30-215 partner): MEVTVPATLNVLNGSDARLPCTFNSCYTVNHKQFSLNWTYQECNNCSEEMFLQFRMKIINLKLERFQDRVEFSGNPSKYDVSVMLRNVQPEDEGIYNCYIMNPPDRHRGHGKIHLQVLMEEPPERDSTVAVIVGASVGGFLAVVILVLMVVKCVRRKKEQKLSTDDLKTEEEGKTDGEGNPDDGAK

`Nc1ncccc1[C@H]1CCCC[C@@H]1Oc1cc(F)c(S(=O)(=O)Nc2ccncn2)cc1F` (relative stereo) [Example 69, 4-{[(1S*,2R*)-2-(2-Aminopyridin-3-yl)cyclohexyl]oxy}-2,5-difluoro-N-(pyrimidin-4-yl)benzenesulfonamide]: the IC50 (as a rule, the concentration that gives 50% inhibition) at hNav 1.7 was determined as 87 nM. The “Ratio of improving pain score (%)” value in experiment [1] is on record as “B (“B” when the rate was 31 to 60%)”.

As to `Nc1n[nH]cc1[C@H]1CCCC[C@@H]1Oc1cc(F)c(S(=O)(=O)Nc2ccncn2)cc1Cl` (relative stereo) [Example 71, 4-{[(1S*,2R*)-2-(3-Amino-1H-pyrazol-4-yl)cyclohexyl]oxy}-5-chloro-2-fluoro-N-(pyrimidin-4-yl)benzenesulfonamide], on hNav 1.7, the half-inhibitory concentration (IC50) came out at 150 nM. In experiment [1], the “Ratio of improving pain score (%)” value is given as “A (“A” when the rate was 61 to 100%)”.

As for `Cn1nccc1[C@H]1CCC(C)(C)C[C@@H]1Oc1cc(F)c(S(=O)(=O)Nc2ccncn2)cc1F` (relative stereo) [Example 72, 4-{[(1S*,2R*)-5,5-Dimethyl-2-(1-methyl-1H-pyrazol-5-yl)cyclohexyl]oxy}-2,5-difluoro-N-(pyrimidin-4-yl)benzenesulfonamide], on hNav 1.7, the IC50 came out at 36 nM. For the same molecule, in experiment [1], the “Ratio of improving pain score (%)” value is recorded as “C (“C” when the rate was 0 to 30%)”.

Take `Cc1c(O[C@H]2CCCC[C@@H]2c2c[nH]nc2N)ccc(S(=O)(=O)Nc2ccncn2)c1F` (relative stereo) [Example 73, 4-{[(1S*,2R*)-2-(3-Amino-1H-pyrazol-4-yl)cyclohexyl]oxy}-2-fluoro-3-methyl-N-(pyrimidin-4-yl)benzenesulfonamide]: the concentration for half-maximal inhibition (IC50) at hNav 1.7 worked out at 100 nM. Also, the “Ratio of improving pain score (%)” value in experiment [1] is recorded as “A (“A” when the rate was 61 to 100%)”.

`Cn1nccc1[C@H]1CCCC[C@@H]1Oc1ccc(S(=O)(=O)Nc2ccncn2)c(F)c1Cl` (relative stereo) [Example 79, 3-Chloro-2-fluoro-4-{[(1S*,2R*)-2-(1-methyl-1H-pyrazol-5-yl)cyclohexyl]oxy}-N-(pyrimidin-4-yl)benzenesulfonamide]: at hNav 1.7, the IC50 was found to be 70 nM. Besides, the “Ratio of improving pain score (%)” value in experiment [1] was “C (“C” when the rate was 0 to 30%)”.

For the molecule `Cn1nccc1[C@H]1CCC[C@@H]1Oc1ccc(S(=O)(=O)Nc2ccncn2)c(F)c1Cl` (relative stereo) [Example 80, 3-Chloro-2-fluoro-4-{[(1S*,2R*)-2-(1-methyl-1H-pyrazol-5-yl)cyclopentyl]oxy}-N-(pyrimidin-4-yl)benzenesulfonamide], the 50% inhibitory concentration (IC50) at hNav 1.7 turned out to be 86 nM. Also, the “Ratio of improving pain score (%)” value in experiment [1] is listed as “C (“C” when the rate was 0 to 30%)”.

For `Cc1cc(S(=O)(=O)Nc2ccncn2)c(F)cc1O[C@H]1CCCC[C@@H]1c1cn[nH]c1` (relative stereo) [Example 81, 2-Fluoro-5-methyl-4-{[(1S*,2R*)-2-(1H-pyrazol-4-yl)cyclohexyl]oxy}-N-(pyrimidin-4-yl)benzenesulfonamide], at hNav 1.7, the IC50 amounted to 150 nM. The “Ratio of improving pain score (%)” value in experiment [1] is on record as “C (“C” when the rate was 0 to 30%)”.

For `Nc1nnccc1[C@H]1CCCC[C@@H]1Oc1cc(F)c(S(=O)(=O)Nc2ccncn2)cc1F` (relative stereo) [Example 82, 4-{[(1S*,2R*)-2-(3-Aminopyridazin-4-yl)cyclohexyl]oxy}-2,5-difluoro-N-(pyrimidin-4-yl)benzenesulfonamide], the IC50 on hNav 1.7 stood at 56 nM. Further, in experiment [1], the “Ratio of improving pain score (%)” value was “B (“B” when the rate was 31 to 60%)”.

Take `O=S(=O)(Nc1ccncn1)c1ccc(O[C@H]2CCCC[C@@H]2c2cn[nH]c2)c(F)c1F` (relative stereo) [Example 83, 2,3-Difluoro-4-{[(1S*,2R*)-2-(1H-pyrazol-4-yl)cyclohexyl]oxy}-N-(pyrimidin-4-yl)benzenesulfonamide]: the half-maximal inhibitory concentration (IC50) on hNav 1.7 is 650 nM. The “Ratio of improving pain score (%)” value in experiment [1] was “B (“B” when the rate was 31 to 60%)”.

For the molecule `Cc1c(O[C@H]2CC(F)(F)CC[C@@H]2c2ccnn2C)ccc(S(=O)(=O)Nc2ccncn2)c1F` (relative stereo) [Example 84, 4-{[(1S*,2R*)-5,5-Difluoro-2-(1-methyl-1H-pyrazol-5-yl)cyclohexyl]oxy}-2-fluoro-3-methyl-N-(pyrimidin-4-yl)benzenesulfonamide], the IC50 on hNav 1.7 was determined as 36 nM. Further, the “Ratio of improving pain score (%)” value in experiment [1] was “B (“B” when the rate was 31 to 60%)”.

As for `Cc1cc(S(=O)(=O)Nc2ccncn2)c(F)cc1O[C@H]1CCC[C@@H]1c1c[nH]nc1N` (relative stereo) [Example 85, 4-{[(1S*,2R*)-2-(3-Amino-1H-pyrazol-4-yl)cyclopentyl]oxy}-2-fluoro-5-methyl-N-(pyrimidin-4-yl)benzenesulfonamide], the IC50 at hNav 1.7 came out at 170 nM. The “Ratio of improving pain score (%)” value in experiment [1] is reported as “B (“B” when the rate was 31 to 60%)”.

Take `Cn1nccc1[C@H]1CCCC[C@@H]1Oc1cc(F)c(S(=O)(=O)Nc2nncs2)cc1Cl` (relative stereo) [Example 86, 5-Chloro-2-fluoro-4-{[(1S*,2R*)-2-(1-methyl-1H-pyrazol-5-yl)cyclohexyl]oxy}-N-(1,3,4-thiadiazol-2-yl)benzenesulfonamide]: the IC50 on hNav 1.7 worked out at 36 nM. For the same molecule, in experiment [1], the “Ratio of improving pain score (%)” value is given as “A (“A” when the rate was 61 to 100%)”.

Regarding `Cn1nccc1[C@H]1CCC[C@@H]1Oc1cc(F)c(S(=O)(=O)Nc2nncs2)cc1Cl` (relative stereo) [Example 87, 5-Chloro-2-fluoro-4-{[(1S*,2R*)-2-(1-methyl-1H-pyrazol-5-yl)cyclopentyl]oxy}-N-(1,3,4-thiadiazol-2-yl)benzenesulfonamide], the IC50 on hNav 1.7 stood at 280 nM. Moreover, the “Ratio of improving pain score (%)” value in experiment [1] is recorded as “B (“B” when the rate was 31 to 60%)”.

As for `Cn1nccc1[C@H]1CC(F)(F)CC[C@@H]1Oc1cc(F)c(S(=O)(=O)Nc2ccncn2)cc1F` (relative stereo) [Example 88, 4-{[(1S*,2R*)-4,4-Difluoro-2-(1-methyl-1H-pyrazol-5-yl)cyclohexyl]oxy}-2,5-difluoro-N-(pyrimidin-4-yl)benzenesulfonamide], the IC50 on hNav 1.7 amounted to 320 nM. The “Ratio of improving pain score (%)” value in experiment [1] is reported as “C (“C” when the rate was 0 to 30%)”.

For the molecule `Cc1cc(S(=O)(=O)Nc2ccncn2)c(F)cc1O[C@H]1CC(F)(F)CC[C@@H]1c1ccnn1C` (relative stereo) [Example 90, 4-{[(1S*,2R*)-5,5-Difluoro-2-(1-methyl-1H-pyrazol-5-yl)cyclohexyl]oxy}-2-fluoro-5-methyl-N-(pyrimidin-4-yl)benzenesulfonamide], at hNav 1.7, the IC50 is 89 nM. Also, the “Ratio of improving pain score (%)” value in experiment [1] is listed as “B (“B” when the rate was 31 to 60%)”.

As to `Nc1n[nH]cc1[C@H]1CCCC[C@@H]1Oc1ccc(S(=O)(=O)Nc2ccncn2)c(F)c1Cl` (relative stereo) [Example 91, 4-{[(1S*,2R*)-2-(3-Amino-1H-pyrazol-4-yl)cyclohexyl]oxy}-3-chloro-2-fluoro-N-(pyrimidin-4-yl)benzenesulfonamide], the IC50 on hNav 1.7 amounted to 170 nM. The “Ratio of improving pain score (%)” value in experiment [1] is reported as “A (“A” when the rate was 61 to 100%)”.

On to `Cn1nccc1[C@H]1CC(C)(C)C[C@@H]1Oc1cc(F)c(S(=O)(=O)Nc2ccncn2)cc1F` (relative stereo) [Example 93, 4-{[(1S*,2R*)-4,4-Dimethyl-2-(1-methyl-1H-pyrazol-5-yl)cyclopentyl]oxy}-2,5-difluoro-N-(pyrimidin-4-yl)benzenesulfonamide], for which, on hNav 1.7, the concentration for half-maximal inhibition (IC50) is 65 nM. The “Ratio of improving pain score (%)” value in experiment [1] is on record as “B (“B” when the rate was 31 to 60%)”.

Turning to `O=S(=O)(Nc1ccncn1)c1c(F)cc(O[C@H]2CCCC[C@@H]2c2cn[nH]c2)cc1F` (relative stereo) [Example 94, 2,6-Difluoro-4-{[(1S*,2R*)-2-(1H-pyrazol-4-yl)cyclohexyl]oxy}-N-(pyrimidin-4-yl)benzenesulfonamide], on hNav 1.7, the IC50 was determined as 120 nM. Also, the “Ratio of improving pain score (%)” value in experiment [1] was “A (“A” when the rate was 61 to 100%)”.

Turning to `[2H]c1nccc(NS(=O)(=O)c2ccc(O[C@H]3CCC[C@@H]3c3ccnn3CC)c(F)c2F)n1` (relative stereo) [Example 95, 4-{[(1S*,2R*)-2-(1-Ethyl-1H-pyrazol-5-yl)cyclopentyl]oxy}-2,3-difluoro-N-(2-^2H) (pyrimidin-4-yl)benzenesulfonamide], the IC50 at hNav 1.7 turned out to be 170 nM. Also, the “Ratio of improving pain score (%)” value in experiment [1] is listed as “C (“C” when the rate was 0 to 30%)”.

Regarding `CC(=O)Nc1n[nH]cc1[C@H]1CCCC[C@@H]1Oc1cc(F)c(S(=O)(=O)Nc2ccncn2)cc1C` (relative stereo) [Example 96, N-(4-{(1R*,2S*)-2-[5-fluoro-2-methyl-4-((pyrimidin-4-yl)sulfamoyl)phenoxy]cyclohexyl}-1H-pyrazol-3-yl)acetamide], on hNav 1.7, the IC50 turned out to be 250 nM. For the same molecule, in experiment [1], the “Ratio of improving pain score (%)” value is “A (“A” when the rate was 61 to 100%)”.

In the case of `Cn1nccc1[C@H]1C[C@@H](OCc2ccccc2)C[C@@H]1Oc1cc(F)c(S(=O)(=O)Nc2ccncn2)cc1F` (relative stereo) [Example 97, 4-{[(1S*,2R*,4R*)-4-(Benzyloxy)-2-(1-methyl-1H-pyrazol-5-yl)cyclopentyl]oxy}-2,5-difluoro-N-(pyrimidin-4-yl)benzenesulfonamide], the 50% inhibitory concentration (IC50) at hNav 1.7 turned out to be 34 nM. Further, the “Ratio of improving pain score (%)” value in experiment [1] is “C (“C” when the rate was 0 to 30%)”.

Take `Cn1nccc1[C@H]1C[C@H](OCc2ccccc2)C[C@@H]1Oc1cc(F)c(S(=O)(=O)Nc2ccncn2)cc1F` (relative stereo) [Example 98, 4-{[(1S*,2R*,4S*)-4-(Benzyloxy)-2-(1-methyl-1H-pyrazol-5-yl)cyclopentyl]oxy}-2,5-difluoro-N-(pyrimidin-4-yl)benzenesulfonamide]: the IC50 on hNav 1.7 turned out to be 46 nM. Further, in experiment [1], the “Ratio of improving pain score (%)” value is given as “C (“C” when the rate was 0 to 30%)”.

`Cc1cc(S(=O)(=O)Nc2ccncn2)c(F)cc1O[C@H]1CCC[C@@H]1c1cn[nH]c1` (relative stereo) [Example 101, 2-Fluoro-5-methyl-4-{[(1S*,2R*)-2-(1H-pyrazol-4-yl)cyclopentyl]oxy}-N-(pyrimidin-4-yl)benzenesulfonamide]: the IC50 on hNav 1.7 came out at 180 nM. In addition, the “Ratio of improving pain score (%)” value in experiment [1] is listed as “B (“B” when the rate was 31 to 60%)”.
